# Laboratory results reported in ChEMBL document CHEMBL4665653, “VU6005806/AZN-00016130, an advanced M positive allosteric modulator (PAM) profiled as a potential preclinical development candidate” (Bioorg Med Chem Lett, 2019).
# How the values were obtained:
# [1] = species on record: Rattus norvegicus; assay: Displacement of [3H]-TCP from NMDA glutamate receptor phencyclidine binding site in Wistar rat brain assessed as residual binding level for radioligand at 10 uM incubated for 45 mins by scintillation counting analysis relative to control; type: tissue-based
# [2] = target: Prostaglandin E2 receptor EP4 subtype (Homo sapiens) (UniProt P35408); assay: Displacement of [3H]-Prostaglandin E2 from full length recombinant human prostanoid receptor EP4 expressed in Chem-1 cells assessed as residual binding level for radioligand at 10 uM incubated for 120 mins by scintillation counting analysis relative to control; type: cell-based
# Chain of Prostaglandin E2 receptor EP4 subtype (Homo sapiens) (P35408 whole entry): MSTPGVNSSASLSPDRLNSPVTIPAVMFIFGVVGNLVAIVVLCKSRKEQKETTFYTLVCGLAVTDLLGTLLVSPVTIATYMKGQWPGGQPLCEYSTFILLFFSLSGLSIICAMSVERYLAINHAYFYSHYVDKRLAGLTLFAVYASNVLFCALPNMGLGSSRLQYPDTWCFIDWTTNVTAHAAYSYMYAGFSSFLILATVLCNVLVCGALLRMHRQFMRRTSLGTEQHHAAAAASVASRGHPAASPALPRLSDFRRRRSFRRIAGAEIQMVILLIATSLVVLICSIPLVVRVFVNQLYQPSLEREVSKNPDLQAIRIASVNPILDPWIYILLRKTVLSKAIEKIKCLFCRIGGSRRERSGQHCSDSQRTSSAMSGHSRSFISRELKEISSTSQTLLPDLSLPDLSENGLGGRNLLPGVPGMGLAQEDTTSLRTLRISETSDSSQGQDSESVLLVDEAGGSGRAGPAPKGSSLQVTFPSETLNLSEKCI
# [3] = target: Muscarinic acetylcholine receptor M1 (Rattus norvegicus, UniProt P08482); assay: Positive allosteric modulation of rat M1 receptor
# Chain of Muscarinic acetylcholine receptor M1 (P08482 whole entry): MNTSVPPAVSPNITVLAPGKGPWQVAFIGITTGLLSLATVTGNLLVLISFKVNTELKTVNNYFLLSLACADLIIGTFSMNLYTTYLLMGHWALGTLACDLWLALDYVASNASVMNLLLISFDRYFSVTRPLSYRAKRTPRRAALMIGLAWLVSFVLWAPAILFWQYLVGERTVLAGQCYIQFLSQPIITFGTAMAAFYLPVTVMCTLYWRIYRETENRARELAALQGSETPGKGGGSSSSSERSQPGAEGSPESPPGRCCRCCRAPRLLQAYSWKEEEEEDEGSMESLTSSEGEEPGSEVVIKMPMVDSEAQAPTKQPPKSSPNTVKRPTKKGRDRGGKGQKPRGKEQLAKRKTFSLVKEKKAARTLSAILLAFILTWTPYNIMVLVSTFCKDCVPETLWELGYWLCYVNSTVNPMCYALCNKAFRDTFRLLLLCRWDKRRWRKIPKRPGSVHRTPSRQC
smiles,measurement,setting,value
COc1nnc2sc(C(=O)NC3CN(c4ncc(C(F)(F)F)cn4)C3)c(N)c2c1C,Activity,[1],> 50%
same,Activity,[2],> 50%
same,EC50,[3],> 30 µM
